How the values were obtained:
Rattus norvegicus [1] = assay: Anti-inflammatory activity against Rattus norvegicus Wistar albino (rat) assessed as inhibition of carrageenan-induced paw edema at 20 mg/kg, ip measured 4 hr after carrageenan challenge by plethysmometer; assay type: functional; conditions: route intraperitoneal
Rattus norvegicus [2] = assay: Anti-inflammatory activity against Rattus norvegicus Wistar albino (rat) assessed as inhibition of carrageenan-induced paw edema at 20 mg/kg, ip measured 3 hr after carrageenan challenge by plethysmometer; assay type: functional; conditions: route intraperitoneal
Rattus norvegicus [3] = assay: Gastrointestinal toxicity in Rattus norvegicus Wistar (rat) assessed as ulcer index at 30 mg/kg, po measured after 17 hr; assay type: organism-based; set-up: dose 30 mg/kg, route oral; conditions: in vivo
Rattus norvegicus [4] = assay: Anti-inflammatory activity against Rattus norvegicus Wistar albino (rat) assessed as inhibition of carrageenan-induced paw edema at 10 mg/kg, ip measured 3 hr after carrageenan challenge by plethysmometer; assay type: functional; conditions: route intraperitoneal
Rattus norvegicus [5] = assay: Gastrointestinal toxicity in Rattus norvegicus Wistar (rat) assessed as ulcer index at 20 mg/kg, po measured after 17 hr; assay type: organism-based; set-up: dose 20 mg/kg, route oral; conditions: in vivo
Rattus norvegicus [6] = assay: Anti-inflammatory activity against Rattus norvegicus Wistar albino (rat) assessed as inhibition of carrageenan-induced paw edema at 10 mg/kg, ip measured 4 hr after carrageenan challenge by plethysmometer; assay type: functional; conditions: route intraperitoneal

COc1ccc(/C=C(/NC(=O)c2ccccc2)c2nc3ccc(C)cc3[nH]2)cc1
inhibition in vivo at 20 mg/kg (Rattus norvegicus [1]): 53.8% | inhibition in vivo at 20 mg/kg (Rattus norvegicus [2]): 30.3%

O=C(N/C(=C/c1ccccc1)c1nc2ccccc2[nH]1)c1ccccc1
inhibition in vivo at 20 mg/kg (Rattus norvegicus [1]): 46.1% | inhibition in vivo at 20 mg/kg (Rattus norvegicus [2]): 39.4%

COc1ccc(/C=C(/NC(=O)c2ccccc2)c2nc3ccc([N+](=O)[O-])cc3[nH]2)cc1
inhibition in vivo at 20 mg/kg (Rattus norvegicus [1]): 51.3% | UI (Rattus norvegicus [3]): 1.41 | inhibition in vivo at 20 mg/kg (Rattus norvegicus [2]): 24.2%

O=C(N/C(=C/c1ccc(O)cc1)c1nc2ccccc2[nH]1)c1ccccc1
inhibition in vivo at 20 mg/kg (Rattus norvegicus [1]): 47.4% | inhibition in vivo at 20 mg/kg (Rattus norvegicus [2]): 27.3%

COc1ccc(/C=C(/NC(=O)c2ccccc2)c2nc3ccccc3[nH]2)cc1
inhibition in vivo at 20 mg/kg (Rattus norvegicus [1]): 35.9% | inhibition in vivo at 20 mg/kg (Rattus norvegicus [2]): 39.4%

Cc1ccc(/C=C(/NC(=O)c2ccccc2)c2nc3ccccc3[nH]2)cc1
inhibition in vivo at 20 mg/kg (Rattus norvegicus [1]): 47.4% | UI (Rattus norvegicus [3]): 1 | inhibition in vivo at 20 mg/kg (Rattus norvegicus [2]): 39.4%

Cc1ccc2nc(/C(=C\c3ccccc3Cl)NC(=O)c3ccccc3)[nH]c2c1
inhibition in vivo at 20 mg/kg (Rattus norvegicus [1]): 50% | inhibition in vivo at 20 mg/kg (Rattus norvegicus [2]): 36.4%

Cc1ccc2nc(/C(=C\c3ccccc3)NC(=O)c3ccccc3)[nH]c2c1
inhibition in vivo at 20 mg/kg (Rattus norvegicus [1]): 46.1% | inhibition in vivo at 20 mg/kg (Rattus norvegicus [2]): 27.3%

O=C(N/C(=C/c1ccccc1Cl)c1nc2ccccc2[nH]1)c1ccccc1
inhibition in vivo at 20 mg/kg (Rattus norvegicus [1]): 43.6% | inhibition in vivo at 20 mg/kg (Rattus norvegicus [2]): 30.3%

O=C(N/C(=C/c1ccccc1)c1nc2ccc([N+](=O)[O-])cc2[nH]1)c1ccccc1
inhibition in vivo at 20 mg/kg (Rattus norvegicus [1]): 50% | inhibition in vivo at 20 mg/kg (Rattus norvegicus [2]): 33.3%

COc1ccc2c(c1)c(CC(=O)O)c(C)n2C(=O)c1ccc(Cl)cc1 [INDOMETHACIN]
inhibition in vivo at 10 mg/kg (Rattus norvegicus [4]): 48.5% | UI (Rattus norvegicus [5]): 4.5 | inhibition in vivo at 10 mg/kg (Rattus norvegicus [6]): 77.2%

O=C(N/C(=C/c1ccccc1Cl)c1nc2ccc([N+](=O)[O-])cc2[nH]1)c1ccccc1
inhibition in vivo at 20 mg/kg (Rattus norvegicus [1]): 59% | UI (Rattus norvegicus [3]): 0.75 | inhibition in vivo at 20 mg/kg (Rattus norvegicus [2]): 42.4%

CN(C)c1ccc(/C=C(/NC(=O)c2ccccc2)c2nc3ccccc3[nH]2)cc1
inhibition in vivo at 20 mg/kg (Rattus norvegicus [1]): 34.6% | inhibition in vivo at 20 mg/kg (Rattus norvegicus [2]): 18.2%

From ChEMBL document CHEMBL3044668, “Synthesis of (substituted benzamidostyryl) lH-benzimidazoles and their screening for anti-inflammatory activity” (Med Chem Res, 2012)
